This note sets out measurements from patent US11046696B2, “Fused pyrimidine compound or salt thereof” (TAIHO PHARMACEUTICAL CO., LTD., priority 2016, dated 2021).

SMILES strings stand for the structures.

This data set can be described thus: Evaluation of stability in liver microsome. The note with it: mouse liver microsome, 1 μM, 37° C. for 30 minutes. On the technique in general: Liver microsomes are a subcellular fraction often used to study metabolism.

Method: Solutions of the test compounds in DMSO/acetonitrile (the final concentration of each test compound was 1 μM, the final concentration of DMSO was 0.01%, and the final concentration of acetonitrile was 1%) were individually added to a liver microsome mixture solution (mouse liver microsome with a final concentration of 0.25 mg/mL, a potassium phosphate buffer with a final concentration of 100 mM, and magnesium chloride with a final concentration of 3 mM), and each mixture was pre-incubated at 37° C. for 5 minutes. […] After incubation at 37° C. for 30 minutes, a double amount of ethanol was added thereto to terminate the reaction, thereby obtaining post-reaction samples. A double amount of ethanol was added to each of the remaining mixture solutions, and a NADPH-generating system was further added thereto, thereby obtaining pre-reaction samples. The pre-reaction samples and post-reaction samples were centrifuged at 2000×g, and their supernatant was filtered through a glass filter. Each filtrate was then introduced into LC-MS/MS, and MS/MS peaks of the test compounds were detected. From the ratio of the post-reaction MS/MS peak to the pre-reaction MS/MS peak of the test compounds, the percentage of the remaining test compounds (remaining %) was calculated.

As for `COCc1ccc(NC(=O)c2c(OCC3CCOC3)n(C3(C)CC3)c3ncnc(N)c23)cc1` (stereo not shown) [Example 101, 4-amino-N-(4-(methoxymethyl)phenyl)-7-(1-methylcyclopropyl)-6-((tetrahydrofuran-3-yl)methoxy)-7H-pyrrolo[2,3-d]pyrimidine-5-carboxamide], the “Remaining (%)” value is 68%.

For `COCc1ccc(NC(=O)c2c(OCC3CCCC3)n(C3(C)CC3)c3ncnc(N)c23)cc1` [Example 140, 4-amino-6-(cyclopentylmethoxy)-N-(4-(methoxymethyl)phenyl)-7-(1-methylcyclopropyl)-7H-pyrrolo[2,3-d] pyrimidine-5-carboxamide], the “Remaining (%)” value is given as 52%.

`COCc1ccc(NC(=O)c2c(C#CCN(C)C)n(C3(C)CC3)c3ncnc(N)c23)cc1` [Example 198, 4-amino-6-(3-(dimethylamino)prop-1-yn-1-yl)-N-(4-(methoxymethyl)phenyl)-7-(1-methylcyclopropyl)-7H-pyrrolo[2,3-d]pyrimidine-5-carboxamide]: the “Remaining (%)” value was 57%.

Regarding `C=C(C)c1c(C(=O)Nc2ccc(COC)cc2)c2c(N)ncnc2n1C1(C)CC1` [Example 149, 4-amino-N-(4-(methoxymethyl)phenyl)-7-(1-methylcyclopropyl)-6-(prop-1-en-2-yl)-7H-pyrrolo[2,3-d]pyrimidine-5-carboxamide], the “Remaining (%)” value was 62%.

For the compound `CCn1nccc1C#Cc1c(C(=O)Nc2ccc(COC)cc2)c2c(N)ncnc2n1C1(C)CC1` [Example 114, 4-amino-6-((1-ethyl-1H-pyrazol-5-yl)ethynyl)-N-(4-(methoxymethyl)phenyl)-7-(1-methylcyclopropyl)-7H-pyrrolo[2,3-d]pyrimidine-5-carboxamide], the “Remaining (%)” value is 55%.

Regarding `COCc1ccc(NC(=O)c2c(C#CCC3(O)CCC3)n(C3(C)CC3)c3ncnc(N)c23)cc1` [Example 103, 4-amino-6-(3-(1-hydroxycyclobutyl)prop-1-yn-1-yl)-N-(4-(methoxymethyl)phenyl)-7-(1-methylcyclopropyl)-7H-pyrrolo[2,3-d]pyrimidine-5-carboxamide], the “Remaining (%)” value turned out to be 60%.

`COCc1ccc(NC(=O)c2c(C#CC3(O)CCOCC3)n(C3(C)CC3)c3ncnc(N)c23)cc1` [Example 185, 4-amino-6-((4-hydroxytetrahydro-2H-pyran4-yl)ethynyl)-N-(4-(methoxymethyl)phenyl)-7-(1-methylcyclopropyl)-7H-pyrrolo[2,3-d]pyrimidine-5-carboxamide]: the “Remaining (%)” value is listed as 80%.

As to `COCc1ccc(NC(=O)c2c(C#CC3CCOCC3)n(C3(C)CC3)c3ncnc(N)c23)cc1F` [Example 205, 4-amino-N-(3-fluoro-4-(methoxymethyl)phenyl)-7-(1-methylcyclopropyl)-6-((tetrahydro-2H-pyran-4-yl)ethynyl)-7H-pyrrolo[2,3-d]pyrimidine-5-carboxamide], the “Remaining (%)” value came out at 58%.

Turning to `COCc1ccc(NC(=O)c2c(C#Cc3ccc(OC)nc3)n(C3(C)CC3)c3ncnc(N)c23)cc1` [Example 192, 4-amino-N-(4-(methoxymethyl)phenyl)-6-((6-methoxypyridin-3-yl)ethynyl)-7-(1-methylcyclopropyl)-7H-pyrrolo[2,3-d]pyrimidine-5-carboxamide], the “Remaining (%)” value worked out at 79%.

`COCc1ccc(NC(=O)c2c(C#Cc3cccc(NCc4ccncc4)c3)n(C3(C)CC3)c3ncnc(N)c23)cc1` [Example 122, 4-amino-N-(4-(methoxymethyl)phenyl)-7-(1-methylcyclopropyl)-6-((3-((pyridin-4-ylmethyl)amino)phenyl)ethynyl)-7H-pyrrolo[2,3-d]pyrimidine-5-carboxamide]: the “Remaining (%)” value is recorded as 62%.

Regarding `COCc1ccc(NC(=O)c2c(C#CCN3CCOCC3)n(C3(C)CC3)c3ncnc(N)c23)cc1F` [Example 206, 4-amino-N-(3-fluoro-4-(methoxymethyl)phenyl)-7-(1-methylcyclopropyl)-6-(3-morpholinoprop-1-yn-1-yl)-7H-pyrrolo[2,3-d]pyrimidine-5-carboxamide], the “Remaining (%)” value worked out at 77%.

Consider `COCc1ccc(NC(=O)c2c(C#CCC(C)O)n(C3(C)CC3)c3ncnc(N)c23)cc1` (stereo not shown) [Example 188, 4-amino-6-(4-hydroxypent-1-yn-1-yl)-N-(4-(methoxymethyl)phenyl)-7-(1-methylcyclopropyl)-7H-pyrrolo[2,3-d]pyrimidine-5-carboxamide], for which the “Remaining (%)” value was 68%.

With `COCc1ccc(NC(=O)c2c(C#Cc3cnc[nH]3)n(C3(C)CC3)c3ncnc(N)c23)cc1` [Example 191, 6-((1H-imidazol-5-yl)ethynyl)-4-amino-N-(4-(methoxymethyl)phenyl)-7-(1-methylcyclopropyl)-7H-pyrrolo[2,3-d]pyrimidine-5-carboxamide], the “Remaining (%)” value turned out to be 53%.

Take `COCc1ccc(NC(=O)c2c(C#CC3CCOCC3)n(C3(C)CC3)c3ncnc(N)c23)cc1` [Example 87, 4-amino-N-[4-(methoxymethyl)phenyl]-7-(1-methylcyclopropyl)-6-((tetrahydro-2H-pyran-4-yl)ethynyl)-7H-pyrrolo[2,3-d]pyrimidine-5-carboxamide]: the “Remaining (%)” value turned out to be 63%.

`COCc1ccc(NC(=O)c2c(C#CCC3NC(=O)NC3=O)n(C3(C)CC3)c3ncnc(N)c23)cc1` (stereo not shown) [Example 156, 4-amino-6-(3-(2,5-dioxoimidazolidin-4-yl)prop-1-yn-1-yl)-N-(4-(methoxymethyl)phenyl)-7-(1-methylcyclopropyl)-7H-pyrrolo[2,3-d]pyrimidine-5-carboxamide]: the “Remaining (%)” value was determined as 67%.

Consider `COCc1ccc(NC(=O)c2c(C#Cc3cn(C)nc3C)n(C3(C)CC3)c3ncnc(N)c23)cc1` [Example 181, 4-amino-6-((1,3-dimethyl-1H-pyrazol-4-yl)ethynyl)-N-(4-(methoxymethyl)phenyl)-7-(1-methylcyclopropyl)-7H-pyrrolo[2,3-d]pyrimidine-5-carboxamide], for which the “Remaining (%)” value was 62%.

`COCc1ccc(NC(=O)c2c(C#Cc3cccc(F)c3)n(C3(C)CC3)c3ncnc(N)c23)cc1` [Example 130, 4-amino-6-((3-fluorophenyl)ethynyl)-N-(4-(methoxymethyl)phenyl)-7-(1-methylcyclopropyl)-7H-pyrrolo[2,3-d]pyrimidine-5-carboxamide]: the “Remaining (%)” value is 84%.

Take `CC(C)(C)n1cc(C(=O)Nc2ccc(-c3cc[nH]n3)cc2)c2c(N)ncnc21` [Example 80, N-(4-(1H-pyrazol-3-yl)phenyl)-4-amino-7-(tert-butyl)-7H-pyrrolo[2,3-d]pyrimidine-5-carboxamide]: the “Remaining (%)” value is 50%.

On to `COCc1ccc(NC(=O)c2c(C#Cc3ccccn3)n(C3(C)CC3)c3ncnc(N)c23)cc1` [Example 172, 4-amino-N-[4-(methoxymethyl)phenyl]-7-(1-methylcyclopropyl)-6-(pyridin-2-ylethynyl)-7H-pyrrolo[2,3-d]pyrimidine-5-carboxamide], for which the “Remaining (%)” value is reported as 61%.

Regarding `COCc1ccc(NC(=O)c2c(C#CC(O)C3CC3)n(C3(C)CC3)c3ncnc(N)c23)cc1` (stereo not shown) [Example 104, 4-amino-6-(3-cyclopropyl-3-hydroxyprop-1-yn-1-yl)-N-(4-(methoxymethyl)phenyl)-7-(1-methylcyclopropyl)-7H-pyrrolo[2,3-d]pyrimidine-5-carboxamide], the “Remaining (%)” value came to 52%.

Take `COCc1ccc(NC(=O)c2c(C#Cc3ccsc3)n(C3(C)CC3)c3ncnc(N)c23)cc1` [Example 176, 4-amino-N-(4-(methoxymethyl)phenyl)-7-(1-methylcyclopropyl)-6-(thiophen-3-ylethynyl)-7H-pyrrolo[2,3-d]pyrimidine-5-carboxamide]: the “Remaining (%)” value was determined as 70%.

As for `COCc1ccc(NC(=O)c2c(C#Cc3cccnc3)n(C3(C)CC3)c3ncnc(N)c23)cc1` [Example 94, 4-amino-N-[4-(methoxymethyl)phenyl]-7-(1-methylcyclopropyl)-6-(pyridin-3-ylethynyl)-7H-pyrrolo[2,3-d]pyrimidine-5-carboxamide], the “Remaining (%)” value is given as 60%.

Take `COCc1ccc(NC(=O)c2c(C#CCC(C)(C)O)n(C3(C)CC3)c3ncnc(N)c23)cc1` [Example 86, 4-amino-6-(4-hydroxy-4-methylpent-1-yn-1-yl)-N-[4-(methoxymethyl)phenyl]-7-(1-methylcyclopropyl)-7H-pyrrolo[2,3-d]pyrimidine-5-carboxamide]: the “Remaining (%)” value is recorded as 66%.

Turning to `COCc1ccc(NC(=O)c2c(OCCN3CCCC3=O)n(C3(C)CC3)c3ncnc(N)c23)cc1` [Example 136, 4-amino-N-(4-(methoxymethyl)phenyl)-7-(1-methylcyclopropyl)-6-(2-(2-oxopyrrolidin-1-yl)ethoxy)-7H-pyrrolo[2,3-d]pyrimidine-5-carboxamide], the “Remaining (%)” value is 78%.

In the case of `COCc1ccc(NC(=O)c2c(F)n(C3(C)CC3)c3ncnc(N)c23)cc1` [Example 69, 4-amino-6-fluoro-N-(4-(methoxymethyl)phenyl)-7-(1-methylcyclopropyl)-7H-pyrrolo[2,3-d]pyrimidine-5-carboxamide], the “Remaining (%)” value is listed as 69%.

For the compound `COCc1ccc(NC(=O)c2c(C#CCN3CC[S+]([O-])CC3)n(C3(C)CC3)c3ncnc(N)c23)cc1` [Example 178, 4-amino-N-(4-(methoxymethyl)phenyl)-7-(1-methylcyclopropyl)-6-(3-(1-oxidethiomorpholino)prop-1-yn-1-yl)-7H-pyrrolo[2,3-d]pyrimidine-5-carboxamide], the “Remaining (%)” value stood at 88%.

Take `COCc1ccc(NC(=O)c2c(-c3ccc(CO)cc3)n(C3(C)CC3)c3ncnc(N)c23)cc1` [Example 145, 4-amino-6-(4-(hydroxymethyl)phenyl)-N-(4-(methoxymethyl)phenyl)-7-(1-methylcyclopropyl)-7H-pyrrolo[2,3-d]pyrimidine-5-carboxamide]: the “Remaining (%)” value is 72%.

Turning to `COCc1ccc(NC(=O)c2cn(C3(C(F)F)CC3)c3ncnc(N)c23)cc1` [Example 46, 4-amino-7-(1-(difluoromethyl)cyclopropyl)-N-(4-(methoxymethyl)phenyl)-7H-pyrrolo[2,3-d]pyrimidine-5-carboxamide], the “Remaining (%)” value came to 65%.
